# Source: patent publication US11203598B2, “Compounds for repressing cancer cell growth” (Institute For Cancer Research, priority 2018, dated 2021)
# Key:
# Assay in all cases: colony formation assay
# Assay type in all cases: cell-based, human
# Details in all cases: 50 μM for 24 hours, then 15 days drug-free
# DLD-1 cells = test system: DLD-1 cells
# Method: (§1) Cells were seeded in 6-well plates at a density of 500 cells per well. Cells were treated with CB002 small molecule for 24 hours. Then, cells were cultured in drug-free complete media for 15 days. During the course of 15 days, the media was changed every 2-3 days. At the end of the two weeks, media was removed, wells were washed twice with Dulbecco's phosphate buffered saline (PBS) and the colonies were fixed and stained with 10% methanol and 0.25% crystal violet (Sigma-Aldrich) for 30 minutes. Wells were then carefully washed with distilled and deionized water and allowed to dry.
# (§2) To further validate CB002 as a candidate therapeutic, its capability to affect cell growth was determined by analyzing cancer cell colony formation. Colony formation assays are widely used to determine the ability of a single cell to proliferate and form a colony in culture. This method offers the advantage of elucidating the sensitivity of cells towards cytotoxic agents in a long-term assay that may mimic the response seen in mouse models. […] Referring to FIG. 3, cells were treated with 50 μM of CB002 for a period of 24 hours, at which point media was replaced with complete media for a period of 15 days. Images are from one of three replicates.
# SW480 cells = test system: SW480 cells
# Method: as §1, §2
# [1] = test system: p73 DLD-1 stable knockdown cells
# Method: as §1, §2
smiles,measurement,setting,value
"Cn1c(=O)c2[nH]c(Nc3ccccc3)nc2n(C)c1=O [CB002, 8-anilino-1,3-dimethyl-3,7-dihydro-1H-purine-2,6-dione]",colony formation,DLD-1 cells,significantly decreases colony formation
same,colony formation,SW480 cells,significantly decreases colony formation
same,colony formation,[1],significantly decreases colony formation
